Laboratory results as given in patent publication US20140350029A1 (DAINIPPON SUMITOMO PHARMA CO., LTD., priority 2011, published 2014).

Columns and labels:
[1] = Short-term (6-week) and long-term (6-month, 12-month) metabolic safety study; assay type: in vivo, human
Experimental: The mean change in weight and BMI was assessed at the LOCF endpoint for the short-term study. […] FIG. 6 summarizes the mean change in weight and BMI in observed cases after 6 months and 12 months of treatment
The median change in total cholesterol and triglycerides, and glucose and HbA1c, was also assessed for both the short-term and long-term studies.

Dopamine D3 receptor = biological target: T1, Dopamine D3 receptor (Homo sapiens, UniProt P35462); experiment: In vitro receptor binding, dopamine D3; settings: cloned cells expressing human receptors; read-out: Binding Affinities (Ki; nM) Dopamine D3
T1 construct: expressed in transfected cells
T1 sequence (P35462 whole entry): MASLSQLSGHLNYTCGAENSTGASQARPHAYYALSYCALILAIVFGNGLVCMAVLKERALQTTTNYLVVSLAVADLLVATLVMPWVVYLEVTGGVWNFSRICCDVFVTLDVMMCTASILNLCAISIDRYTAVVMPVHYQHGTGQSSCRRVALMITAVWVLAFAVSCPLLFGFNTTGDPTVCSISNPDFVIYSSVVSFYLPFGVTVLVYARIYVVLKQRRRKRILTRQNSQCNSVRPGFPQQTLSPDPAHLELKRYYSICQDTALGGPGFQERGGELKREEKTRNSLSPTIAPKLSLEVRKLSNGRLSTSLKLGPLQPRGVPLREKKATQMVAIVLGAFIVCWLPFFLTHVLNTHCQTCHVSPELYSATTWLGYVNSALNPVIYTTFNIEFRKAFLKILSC

muscarinic M1 receptor = biological target: T2, muscarinic M1 receptor (Homo sapiens, UniProt P11229); settings: background statement; cited from earlier work
T2 sequence (P11229 1-460): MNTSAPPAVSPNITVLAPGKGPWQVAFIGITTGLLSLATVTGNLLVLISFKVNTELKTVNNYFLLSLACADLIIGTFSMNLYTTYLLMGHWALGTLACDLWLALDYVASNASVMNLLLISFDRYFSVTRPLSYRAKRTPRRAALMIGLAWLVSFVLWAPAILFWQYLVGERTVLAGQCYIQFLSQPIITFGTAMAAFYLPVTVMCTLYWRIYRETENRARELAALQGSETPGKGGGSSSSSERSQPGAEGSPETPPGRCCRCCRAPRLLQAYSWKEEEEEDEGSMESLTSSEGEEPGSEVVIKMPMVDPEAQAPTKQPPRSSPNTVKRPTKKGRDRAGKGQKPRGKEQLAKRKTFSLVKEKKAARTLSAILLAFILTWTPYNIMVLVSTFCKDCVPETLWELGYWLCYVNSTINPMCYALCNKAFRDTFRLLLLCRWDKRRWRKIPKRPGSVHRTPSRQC

[2] = Lurasidone monotherapy for bipolar I depression, 6-week study, safety and tolerability; assay type: in vivo, human
[3] = Lurasidone 20-60 mg, listed as LUR
[4] = Lurasidone 80-120 mg, listed as LUR

O=C1[C@@H]2[C@H]3CC[C@H](C3)[C@@H]2C(=O)N1C[C@@H]1CCCC[C@H]1CN1CCN(c2nsc3ccccc23)CC1 [Lurasidone]
mean change in weight and BMI as compared to other treatments ([1]; short-term (6-week) study, LOCF endpoint, patients with schizophrenia): minimal increases | disturbances in lipids or glycemic control ([1]; short-term and long-term (6 and 12 months) studies): not associated with disturbances in lipids or glycemic control | Ki (Dopamine D3 receptor): 15.7 nM | reported affinity for muscarinic M1 receptor (muscarinic M1 receptor): minimal to no affinity | Adverse Events: Akathisia, incidence ([2]; Lurasidone 20-60 mg): 13 (7.9%) | Adverse Events: Dizziness, incidence ([2]; Lurasidone 20-60 mg): 4 (2.4%) | Adverse Events: Headache, incidence ([2]; Lurasidone 20-60 mg): 23 (14.0%) | Adverse Events: Insomnia, incidence ([2]; Lurasidone 20-60 mg): 8 (4.9%) | Adverse Events: Nausea, incidence ([2]; Lurasidone 20-60 mg): 17 (10.4%) | Adverse Events: Sedation, incidence ([2]; Lurasidone 20-60 mg): 5 (3.0%) | Adverse Events: Somnolence, incidence ([2]; Lurasidone 20-60 mg): 7 (4.3%) | Cholesterol (mg/dL) median change (at LOCF endpoint) ([2]; Lurasidone 20-60 mg): 0.0 mg/dL | Glucose (mg/dL) median change (at LOCF endpoint) ([2]; Lurasidone 20-60 mg): -1.0 mg/dL | Triglycerides (mg/dL) median change (at LOCF endpoint) ([2]; Lurasidone 20-60 mg): +3.0 mg/dL | Weight (kg) mean change (at LOCF endpoint) ([2]; Lurasidone 20-60 mg): +0.56 kg | Adverse Events: Akathisia, incidence [2, 3]: 7.9% | Adverse Events: Headache, incidence [2, 3]: 14.0% | Adverse Events: Nausea, incidence [2, 3]: 10.4% | Adverse Events: Akathisia, incidence ([2]; Lurasidone 80-120 mg): 18 (10.8%) | Adverse Events: Dizziness, incidence ([2]; Lurasidone 80-120 mg): 10 (6.0%) | Adverse Events: Headache, incidence ([2]; Lurasidone 80-120 mg): 15 (9.0%) | Adverse Events: Insomnia, incidence ([2]; Lurasidone 80-120 mg): 11 (6.6%) | Adverse Events: Nausea, incidence ([2]; Lurasidone 80-120 mg): 17.4% | Adverse Events: Sedation, incidence ([2]; Lurasidone 80-120 mg): 12 (7.2%) | Adverse Events: Somnolence, incidence ([2]; Lurasidone 80-120 mg): 11 (6.6%) | Cholesterol (mg/dL) median change (at LOCF endpoint) ([2]; Lurasidone 80-120 mg): -3.0 mg/dL | Glucose (mg/dL) median change (at LOCF endpoint) ([2]; Lurasidone 80-120 mg): 0.0 mg/dL | Triglycerides (mg/dL) median change (at LOCF endpoint) ([2]; Lurasidone 80-120 mg): -2.0 mg/dL | Weight (kg) mean change (at LOCF endpoint) ([2]; Lurasidone 80-120 mg): +0.02 kg | Adverse Events: Akathisia, incidence [2, 4]: 10.8% | Adverse Events: Headache, incidence [2, 4]: 9.0% | Adverse Events: Nausea, incidence [2, 4]: 17.4% | discontinuation rates due to adverse events ([2]; lurasidone 20 to 60 mg/day): 7% | discontinuation rates due to adverse events ([2]; lurasidone 80 to 120 mg/day): 6% | changes in weight, lipids and measures of glycemic control ([2]; monotherapy, 20-60 and 80-120 mg/day, 6 weeks): Minimal changes
